Assay results taken from US20220257774A1, “AROMATIC AMINE AR AHD BET TARGETING PROTEIN DEGRADATION CHIMERA COMPOUND AND USE” (HINOVA PHARMACEUTICALS INC., priority 2019, published 2022).

system: LNCaP/AR cells; test: Inhibition of the proliferation of LNCap/AR cells (CCK-8); format: cell-based; conditions: 144 h; LNCaP/AR cells, 6 days culture, CCK-8; read-out: LNCap/AR IC50
Outline: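 LNCaP/AR cells (1000/well, RPMI1640 + 10% FBS) were treated for 6 days at 37 °C with 9-point 3-fold dilutions from 10 μM final, 0.1% DMSO, in duplicate. Viability was read by CCK-8 absorbance at 450 nm after 1 h, and IC50 came from a dose-response-inhibition fit.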

First: CC(=O)O[C@@H]1C[C@@H](C(=O)N[C@@H](C)c2ccc(-c3scnc3C)cc2)N(C(=O)[C@@H](NC(=O)COCCCCCN(c2ccc(-n3ccnc3)cc2)c2cc(-c3c(C)noc3C)ccc2C)C(C)(C)C)C1 [Compound 84, (3R,5S)-1-((S)-2-(2-((S-((4-(1H-imidazol-1-yl)phenyl)(5-(3,5-dimethylisoxazol-4-yl)-2-methylphenyl)amino)pentyl)oxy)acetylamino)-3,3-dimethylbutyryl)-5-(((S)-1-(4-(4-methylthiazol-5-yl)phenyl)ethyl)aminoformyl)pyrrolidinyl-3-yl acetate]
Second: CC(=O)O[C@@H]1C[C@@H](C(=O)N[C@@H](C)c2ccc(-c3scnc3C)cc2)N(C(=O)[C@@H](NC(=O)COCCCCN(c2ccc(-n3ccnc3)cc2)c2cc(-c3c(C)noc3C)ccc2C)C(C)(C)C)C1 [Compound 86, (3R,5S)-1-((S)-2-(2-(4-((4-(1H-imidazol-1-yl)phenyl)(5-(3,5-dimethylisoxazol-4-yl)-2-methylphenyl)amino)butoxy)acetamido)-3,3-dimethylbutyryl)-5-((S)-1-(4-(4-methylthiazol-5-yl)phenyl)ethyl)carbamoyl)pyrrolidine-3-yl acetate]
The IC50 of the first is higher: 501 to 2000 nM for the first, 101 to 500 nM for the second. The second is the more potent here.

First: Cc1ccc(-c2c(C)noc2C)cc1N(CCCCOCC(=O)N[C@H](C(=O)N1C[C@H](O)C[C@H]1C(=O)N[C@@H](C)c1ccc(-c2scnc2C)cc1)C(C)(C)C)c1ccc(-n2ccnc2)cc1 [Compound 85, (2S,4R)-1-((S)-2-(2-(4-((4-(1H-imidazol-1-yl)phenyl)(5-(3,5-dimethylisoxazol-4-yl)-2-methylphenyl)amino)butoxy)acetamido)-3,3-dimethylbutyryl)-4-hydroxy-N—((S)-1-(4-(4-methylthiazol-5-yl)phenyl)ethyl)pyrrolidine-2-carboxamide]
Second: Cc1ccc(-c2c(C)noc2C)cc1N(CCCCCCCCOCC(=O)N[C@H](C(=O)N1C[C@H](O)C[C@H]1C(=O)N[C@@H](C)c1ccc(-c2scnc2C)cc1)C(C)(C)C)c1ccc(-n2ccnc2)cc1 [Compound 87, (2S,4R)-1-((S)-2-(2-((8-((4-(1H-imidazol-1-yl)phenyl)(5-(3,5-methylisoxazol-4-yl)-2-methylphenyl)amino)cetyl)oxy)acetylamino)-3,3-dimethylbutyryl)-4-hydroxy-N—((S)-1-(4-(4-methylthiazol-5-yl)phenyl)ethyl)pyrrolidinyl-2-formamide]
The IC50 of the first is lower: 101 to 500 nM for the first, 501 to 2000 nM for the second. The first is the more potent here.

Compared with `CCCCCCCCC(CCCCCCCOCC(=O)N[C@H](C(=O)N1C[C@H](OC(C)=O)C[C@H]1C(=O)N[C@@H](C)c1ccc(-c2scnc2C)cc1)C(C)(C)C)N(c1ccc(-n2ccnc2)cc1)c1cc(-c2c(C)noc2C)ccc1C` (stereo partly drawn) [Compound 88, (3R,5S)-1-((S)-2-(2-((8-((4-(1H-imidazol-1-yl)phenyl)(5-(3,5-dimethylisoxazol-4-yl)-2-methylphenyl)amino)cetyl)oxy)acetylamino)-3,3-dimethylbutyryl)-5-(((S)-1-(4-(4-methylthiazol-5-yl)phenyl)ethyl)carbamoyl)pyrrolidine-3-yl acetate], `CC(=O)O[C@@H]1C[C@@H](C(=O)N[C@@H](C)c2ccc(-c3scnc3C)cc2)N(C(=O)[C@@H](NC(=O)COCCCCCN(c2ccc(-n3cnnc3)cc2)c2cc(-c3c(C)noc3C)ccc2C)C(C)(C)C)C1` [Compound 94] is lower in IC50: 501 to 2000 nM for the first, 101 to 500 nM for the second. The second is the more potent here.

Compared with `Cc1ccc(-c2c(C)noc2C)cc1N(CCCCCOCC(=O)N[C@H](C(=O)N1C[C@H](O)C[C@H]1C(=O)N[C@@H](C)c1ccc(-c2scnc2C)cc1)C(C)(C)C)c1ccc(-n2ccnn2)cc1` [Compound 89, (2S,4R)-1-((S)-2-(2-((5-((4-(1H-1,2,3-triazol-1-yl)phenyl)(5-(3,5-dimethylisoxazol-4-yl)-2-methylphenyl)amino)pentyl)oxy)acetylamino)-3,3-dimethylbutyryl)-4-hydroxy-N—((S)-1-(4-(4-methylthiazol-5-yl)phenyl)ethyl)-pyrrolidinyl-2-formamide], `CC(=O)O[C@@H]1C[C@@H](C(=O)N[C@@H](C)c2ccc(-c3scnc3C)cc2)N(C(=O)[C@@H](NC(=O)COCCCCCN(c2ccc(-n3ccnn3)cc2)c2cc(-c3c(C)noc3C)ccc2C)C(C)(C)C)C1` [Compound 90, (3R,5S)-1-((S)-2-(2-((5-((4-(1H-1,2,3-triazol-1-yl)phenyl)(5-(3,5-dimethylisoxazol-4-yl)-2-methylphenyl)amino)pentyl)oxy)acetylamino)-3,3-dimethylbutyryl)-5-(((S)-1-(4-(4-methylthiazol-5-yl)phenyl)ethyl)aminoformyl)pyrrolidinyl-3-yl acetate] is higher in IC50: less than 100 nM for the first, 101 to 500 nM for the second.

`Cc1ccc(-c2c(C)noc2C)cc1N(CCCCCOCC(=O)N[C@H](C(=O)N1C[C@H](O)C[C@H]1C(=O)N[C@@H](C)c1ccc(-c2scnc2C)cc1)C(C)(C)C)c1ccc(-n2cncn2)cc1` [Compound 91, (2S,4R)-1-((S)-2-(2-((5-((4-(1H-1,2,4-triazol-1-yl)phenyl)(5-(3,5-dimethylisoxazol-4-yl)-2-methylphenyl)amino)pentyl)oxy)acetylamino)-3,3-dimethylbutyryl)-4-hydroxy-N—((S)-1-(4-(4-methylthiazol-5-yl)phenyl)ethyl)-pyrrolidinyl-2-formamide] and `CC(=O)O[C@@H]1C[C@@H](C(=O)N[C@@H](C)c2ccc(-c3scnc3C)cc2)N(C(=O)[C@@H](NC(=O)COCCCCCN(c2ccc(-n3cncn3)cc2)c2cc(-c3c(C)noc3C)ccc2C)C(C)(C)C)C1` [Compound 92, (3R,5S)-1-((S)-2-(2-((5-((4-(1H-1,2,4-triazol-1-yl)phenyl)(5-(3,5-dimethylisoxazol-4-yl)-2-methylphenyl)amino)pentyl)oxy)acetylamino)-3,3-dimethylbutyryl)-5-(((S)-1-(4-(4-methylthiazol-5-yl)phenyl)ethyl)aminoformyl)pyrrolidinyl-3-yl acetate] fall in the same range of IC50: 101 to 500 nM for the first, 101 to 500 nM for the second.

`Cc1ccc(-c2c(C)noc2C)cc1N(CCCCCOCC(=O)N[C@H](C(=O)N1C[C@H](O)C[C@H]1C(=O)N[C@@H](C)c1ccc(-c2scnc2C)cc1)C(C)(C)C)c1ccc(-n2cnnc2)cc1` [Compound 93, (2S,4R)-1-((S)-2-(2-((5-((4-(1H-1,3,4-triazol-1-yl)phenyl)(5-(3,5-dimethylisoxazol-4-yl)-2-methylphenyl)amino)pentyl)oxy)acetylamino)-3,3-dimethylbutyryl)-4-hydroxy-N—((S)-1-(4-(4-methylthiazol-5-yl)phenyl)ethyl)-pyrrolidinyl-2-formamide] and `Cc1cn(-c2ccc(N(CCCCCOCC(=O)N[C@H](C(=O)N3C[C@H](O)C[C@H]3C(=O)N[C@@H](C)c3ccc(-c4scnc4C)cc3)C(C)(C)C)c3cc(-c4c(C)noc4C)ccc3C)cc2)cn1` [Compound 95, (2S,4R)-1-((S)-2-(2-((5-((5-(3,5-dimethylisoxazol-4-yl)-2-methylphenyl)(4-(4-methyl-1H-imidazol-1-yl)phenyl)amino)pentyl)oxy)acetylamino)-3,3-dimethylbutyryl)-4-hydroxy-N—((S)-1-(4-(4-methylthiazol-5-yl)phenyl)ethyl)-pyrrolidinyl-2-formamide] fall in the same range of IC50: 101 to 500 nM for the first, 101 to 500 nM for the second.

same assay, conditions: LNCaP/AR cells, 6 days culture, CCK-8; read-out: LNCap/AR IC50

First: CCn1nc(C)c(-c2ccc(C)c(N(CCCCCOCC(=O)N[C@H](C(=O)N3C[C@H](OC(C)=O)C[C@H]3C(=O)N[C@@H](C)c3ccc(-c4scnc4C)cc3)C(C)(C)C)c3ccc(C#N)c(Cl)c3)c2)c1C [Compound 82, (3R,5S)-1-((S)-2-(2-((5-((3-chloro-4-cyanophenyl)(5-(1-ethyl-3,5-dimethyl-1H-pyrazol-4-yl)-2-methylphenyl)amino)pentyl)oxy)acetamido)-3,3-dimethylbutyryl)-5-((S)-1-(4-methylthiazol-5-yl)phenyl)ethyl)carbamoyl)pyrrolidine-3-yl acetate]
Second: CC(=O)O[C@@H]1C[C@@H](C(=O)N[C@@H](C)c2ccc(-c3scnc3C)cc2)N(C(=O)[C@@H](NC(=O)COCCCCCN(c2ccc(-n3cnc(C)c3)cc2)c2cc(-c3c(C)noc3C)ccc2C)C(C)(C)C)C1 [Compound 96, (3R,5S)-1-((S)-2-(2-((5-((5-(3,5-dimethylisoxazol-4-yl)-2-methylphenyl)(4-(4-methyl-1H-imidazol-1-yl)phenyl)amino)pentyl)oxy)acetylamino)-3,3-dimethylbutyryl)-5-(((S)-1-(4-(4-methylthiazol-5-yl)phenyl)ethyl)aminoformyl)pyrrolidinyl-3-yl acetate]
The IC50 of the first is higher: 101 to 500 nM for the first, less than 100 nM for the second.

In the case of `Cc1ccc(-c2c(C)noc2C)cc1N(CCCCCOCC(=O)N[C@H](C(=O)N1C[C@H](O)C[C@H]1C(=O)N[C@@H](C)c1ccc(-c2scnc2C)cc1)C(C)(C)C)c1ccc(-n2ccnc2)cc1` [Compound 83, (2S,4R)-1-((S)-2-(2-((5-((4-(1H-imidazol-1-yl)phenyl)(5-(3,5-dimethylisoxazol-4-yl)-2-methylphenyl)amino)pentyl)oxy)acetylamino)-3,3-dimethylbutyryl)-4-hydroxy-N—((S)-1-(4-(4-methylthiazol-5-yl)phenyl)ethyl)-pyrrolidinyl-2-formamide], the IC50 is reported as less than 100 nM.

same assay, conditions: LNCaP/AR, 144 h, read-out: LNCap/AR IC50

`Cc1ccc(-c2c(C)noc2C)cc1N(CCCCCN1C(=O)CCC(N2Cc3cc(N)ccc3C2=O)C1=O)c1ccc(C#N)c(Cl)c1` (centres unmarked) [Compound 59, 4-((5-(3-(5-amino-1-oxoisoindolin-2-yl)-2,6-dioxopiperidin-1-yl)pentyl)(5-(3,5-dimethylisoxazol-4-yl)-2-methylphenyl)amino)-2-chlorobenzonitrile] and `CCN(c1ccc(C#N)c(Cl)c1)c1cc(-c2c(C)nn(CCCCCOCC(=O)N[C@H](C(=O)N3C[C@H](OC(C)=O)C[C@H]3C(=O)N[C@@H](C)c3ccc(-c4scnc4C)cc3)C(C)(C)C)c2C)ccc1C` [Compound 81, (3R,5S)-1-((S)-2-(2-((5-(4-(3-((3-chloro-4-cyanophenyl)(ethyl)amino)-4-methylphenyl)-3,5-dimethyl-1H-pyrazol-1-yl)pentyl)oxy)acetamido)-3,3-dimethylbutyryl)-5-((S)-1-(4-methylthiazol-5-yl)phenyl)ethyl)carbamoyl)pyrrolidine-3-yl acetate] fall in the same range of IC50: 501 to 2000 nM for the first, 501 to 2000 nM for the second.
